Source: ChEMBL document CHEMBL1833795, “Discovery of potent, metabolically stable purine CRF-1 antagonists with differentiated binding kinetic profiles” (Bioorg Med Chem Lett, 2011)

Assays:
[1] = target: T1, Corticotropin-releasing factor receptor 1 (Homo sapiens, UniProt P34998); assay: Antagonist activity at recombinant human CRF1 receptor expressed in CHO cells assessed as inhibition of CRF-induced cAMP formation; assay type: functional, cell-based
T1 sequence (P34998 whole entry): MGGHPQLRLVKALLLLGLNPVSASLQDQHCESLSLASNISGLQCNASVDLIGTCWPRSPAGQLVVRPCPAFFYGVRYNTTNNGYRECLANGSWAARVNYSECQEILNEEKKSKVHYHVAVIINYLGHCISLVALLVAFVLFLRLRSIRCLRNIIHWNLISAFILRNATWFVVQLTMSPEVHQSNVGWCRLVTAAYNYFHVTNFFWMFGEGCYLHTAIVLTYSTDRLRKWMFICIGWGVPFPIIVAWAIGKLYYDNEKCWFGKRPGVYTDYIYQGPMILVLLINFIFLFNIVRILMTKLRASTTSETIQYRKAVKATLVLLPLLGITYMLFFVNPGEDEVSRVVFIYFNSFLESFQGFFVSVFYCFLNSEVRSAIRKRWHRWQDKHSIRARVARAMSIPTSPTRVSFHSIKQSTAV

[2] = system: Liver microsomes; assay: Intrinsic clearance in human liver microsomes assessed per mg of protein; assay type: ADME, Microsome
[3] = system: Liver microsomes; assay: Intrinsic clearance in rat liver microsomes assessed per mg of protein; assay type: ADME, Microsome
[4] = target: T1, Corticotropin-releasing factor receptor 1; assay: Binding affinity to recombinant human CRF1 receptor expressed in CHO cells; assay type: cell-based
[5] = target: T2, Corticotropin-releasing factor receptor 1 (Homo sapiens) (UniProt P34998); details: CHO
T2 sequence (whole entry): T1 sequence (P34998 whole entry)
Description: Antagonist activity at recombinant human CRF1 receptor expressed in CHO cells assessed as dissociation half life

[6] = Half life in rat at 0.1 mg/kg; assay type: ADME, organism-based; parameters: dose 0.1 mg/kg; details: in vivo
[7] = Volume of distribution at steady state in rat at 0.1 mg/kg; assay type: ADME, organism-based; parameters: dose 0.1 mg/kg; details: in vivo, read-out: Vdss
[8] = Clearance in rat at 0.1 mg/kg; assay type: ADME, organism-based; parameters: dose 0.1 mg/kg; details: in vivo
[9] = Oral bioavailability in rat at 8 mg/kg; assay type: ADME, organism-based; details: in vivo

Row | Compound | Ki [1] [nM] | clearance [2] [µL/min/mg] | clearance [3] [µL/min/mg] | Kd [4] [nM] | T1/2 [5] [h] | half-life [6] [h] | Vd [7] [L/kg] | clearance [8] [mL/min/kg] | bioavailability [9] [%]
1 | COc1ccc(-n2c(C)nc3c(NC(C4CC4)C4CC4)nc(C)nc32)c(Cl)c1 | 12 |  |  |  |  |  |  |  | 
2 | COc1ccc(-n2ncc3c(NC(C4CC4)C4CC4)nc(C)nc32)c(C)c1 | 32 | < 11 | 25 |  |  |  |  |  | 
3 | Cc1nc(NC(C2CC2)C2CC2)c2nc(C)n(-c3ccc(C#N)cc3)c2n1 | 62 | 16 | 22 |  |  |  |  |  | 
4 | CCC(CC)Nc1cc(C)nc2c(-c3ccc(OC)cc3C)c(C)nn12 | 1.5 |  |  | 0.279 | 5.5 |  |  |  | 
5 | COc1ccc(-n2c(CC3CC3)nc3c(NC(C4CC4)C4CC4)nc(C)nc32)cc1 | 308 |  |  |  |  |  |  |  | 
6 | CCOc1ccc(-n2c(C)nc3c(NC(C4CC4)C4CC4)nc(C)nc32)cc1 | 20 | 16 | 29 |  |  |  |  |  | 
7 | Cc1nc(NC(C2CC2)C2CC2)c2nc(C)n(-c3ccc(OC(F)F)cc3F)c2n1 | 7 |  |  |  |  |  |  |  | 
8 | COc1cc(OC(F)F)ccc1-n1c(C)nc2c(NC(C3CC3)C3CC3)nc(C)nc21 | 0.291 | 19 | 38 | 0.291 | 10.7 | 10 | 8.2 | 9 | 52
9 | Cc1nc(NC(C2CC2)C2CC2)c2nc(C)n(-c3ccc(S(C)(=O)=O)cc3)c2n1 | 140 | < 9 |  |  |  |  |  |  | 
10 | COCc1nc2c(NC(C3CC3)C3CC3)nc(C)nc2n1-c1ccc(OC)cc1 | 157 |  |  |  |  |  |  |  | 
11 | Cc1nc(NC(C2CC2)C2CC2)c2nc(C)n(-c3ccc(OC(F)F)cc3)c2n1 | 5 | 15 | 17 | 3 | 1 | 11 | 2 | 3 | 
12 | COc1ccc(-n2c(CC(C)C)nc3c(NC(C4CC4)C4CC4)nc(C)nc32)cc1 | 607 |  |  |  |  |  |  |  | 
13 | Cc1nc(NC(C2CC2)C2CC2)c2nc(C)n(-c3ccc(F)cc3)c2n1 | 91 | 15 | < 8.5 |  |  |  |  |  | 
14 | CCCN(CCC)c1cc(C)nc2c(-c3cnc(N(C)C)cc3C)c(C)nn12 |  |  |  |  | 12.8 |  |  |  | 
15 | COc1ccc(-n2c(C3CC(F)(F)C3)nc3c(NC(C4CC4)C4CC4)nc(C)nc32)cc1 | 261 |  |  |  |  |  |  |  | 
16 | Cc1nc(NC(C2CC2)C2CC2)c2nc(C)n(-c3ccc(OC(F)F)cc3Cl)c2n1 | 0.373 | 18 | 51 | 0.373 | 6.2 | 6.4 | 4.5 | 8 | 
17 | COc1ccc(-n2cnc3c(NC(C4CC4)C4CC4)nc(C)nc32)c(C)c1 | 47 | 21 | 48 |  |  |  |  |  | 
18 | CCCN(CCOC)c1nc(C)nc2c1c(C)nn2-c1ccc(OC)cc1C |  | 172 | 23 | 14 | 0.3 |  |  |  | 
19 | COc1ccc(-n2c(C)nc3c(NC(C4CC4)C4CC4)nc(C)nc32)cc1 | 19 | < 10 | 20 | 12 | 0.5 | 2.7 | 2 | 4 | 
20 | COc1ccc(-n2c(C3CCCO3)nc3c(NC(C4CC4)C4CC4)nc(C)nc32)cc1 (racemic) | 867 |  |  |  |  |  |  |  | 
21 | COc1ccc(-n2c(C)nc3c(NC(C4CC4)C4CC4)nc(C)nc32)c(C)c1 | 14 | 10 | 37 |  |  |  |  |  | 
22 | Cc1nc(NC(C2CC2)C2CC2)c2nc(C)n(-c3ccc(Cl)cc3)c2n1 | 11 | 28 | < 8.5 |  |  |  |  |  | 
23 | Cc1nc(NC(C2CC2)C2CC2)c2nc(C)n(-c3ccc(OC(F)(F)F)cc3)c2n1 | 9 | 17 | 27 |  |  |  |  |  | 
